Data on 15 molecules can be found in ChEMBL document CHEMBL1136385, “Synthesis and pharmacological activity of fluorescent histamine H2 receptor antagonists related to potentidine” (Bioorg Med Chem Lett, 2003).

Histamine H2 receptor, sequence (P47747 whole entry): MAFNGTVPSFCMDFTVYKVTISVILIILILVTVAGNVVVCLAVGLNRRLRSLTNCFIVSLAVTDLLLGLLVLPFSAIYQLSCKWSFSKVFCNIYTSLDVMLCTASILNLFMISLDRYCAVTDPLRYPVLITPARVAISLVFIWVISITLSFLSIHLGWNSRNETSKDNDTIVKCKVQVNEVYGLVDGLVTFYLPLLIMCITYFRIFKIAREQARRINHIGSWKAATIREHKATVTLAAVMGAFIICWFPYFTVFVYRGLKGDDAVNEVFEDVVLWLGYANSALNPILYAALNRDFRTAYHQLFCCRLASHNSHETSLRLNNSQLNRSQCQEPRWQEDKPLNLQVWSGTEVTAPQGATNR

The test has as its target Histamine H2 receptor (Cavia porcellus, UniProt P47747). Kind of test: Histamine H2 receptor antagonistic activity on the isolated spontaneously beating guinea pig right atrium. In kind it is functional, tissue-based, Cardiac atrium. To be noted: read-out: pA2 (converted).
In the case of `CC(=O)c1ccc2n(c1=O)[C@H](COC(=O)CCC(=O)NCCCOc1cccc(CN3CCCCC3)c1)Cc1c-2[nH]c2ccccc12`, the Kb was 1820 nM.
In the case of `CN(C)c1cccc2c(S(=O)(=O)NCC/N=C(\NC#N)NCCCOc3cccc(CN4CCCCC4)c3)cccc12`, the Kb is 1950 nM.
On to `N#CN/C(=N\CCCNc1ccc([N+](=O)[O-])c2nonc12)NCCCOc1cccc(CN2CCCCC2)c1`, for which the Kb was 37.2 nM.
For `N#CN/C(=N\CCCCNC(=O)c1ccc(C2c3ccc(O)cc3OC3=CC(=O)C=CC32)c(C(=O)O)c1)NCCCOc1cccc(CN2CCCCC2)c1` (stereo not given), the Kb was 8910 nM.
Then `N#CN/C(=N\CCNC(=O)c1ccc(C2c3ccc(O)cc3OC3=CC(=O)C=CC32)c(C(=O)O)c1)NCCCOc1cccc(CN2CCCCC2)c1` (stereo not given), with 66100 nM; and `N#CN/C(=N\CCNC(=O)CCCCCNc1ccc([N+](=O)[O-])c2nonc12)NCCCOc1cccc(CN2CCCCC2)c1`, with 25.7 nM; and `N#CN=C(NCCCCCCCCNc1ccc([N+](=O)[O-])c2n[o+][n-]c12)NCCCOc1cccc(CN2CCCCC2)c1`, with 11 nM.
Consider `N#CN/C(=N\CCNC(=O)c1ccc(C(=O)O)c(C2c3ccc(O)cc3OC3=CC(=O)C=CC32)c1)NCCCOc1cccc(CN2CCCCC2)c1` (stereo not given), for which the Kb was 44700 nM.
The result for `N#CN/C(=N\CCCCCCNc1ccc([N+](=O)[O-])c2nonc12)NCCCOc1cccc(CN2CCCCC2)c1` reads 32.4 nM; that for `N#CN/C(=N\CCNC(=O)c1c2ccccc2nc2ccccc12)NCCCOc1cccc(CN2CCCCC2)c1`, 182 nM.
The result for `N#CN/C(=N\CCCCNC(=O)c1ccc(C(=O)O)c(C2c3ccc(O)cc3OC3=CC(=O)C=CC32)c1)NCCCOc1cccc(CN2CCCCC2)c1` (stereo not given) reads 10000 nM; that for `N#CN/C(=N\CCN)NCCCOc1cccc(CN2CCCCC2)c1`, 1100 nM; that for `NC(N)=Nc1nc(CSCCC(N)=NS(N)(=O)=O)cs1` [FAMOTIDINE], 18.2 nM.
The result for `CN/C(=C/[N+](=O)[O-])NCCSCc1ccc(CN(C)C)o1` [RANITIDINE] reads 170 nM; that for `CC(=O)OCC(=O)NCCCOc1cccc(CN2CCCCC2)c1` [ROXATIDINE ACETATE], 38.9 nM.
